Data set [1] in a line: 90 minute cytotoxicity assay (LDH release), renal toxicity. Type of data set: cell-based. An excerpt:
In some embodiments, a peptide provided herein has renal toxicity that is at least 10% (e.g., at least 15%, at least 20%, at least 25%, at least 30%, at least 35%, at least 40%, at least 45%, at least 50%, at least 55%, at least 60%, at least 65%, at least 65%, at least 70%, at least 75%, at least 80%, at least 85%, at least 90%, at least 95%, at least 99%) lower than the renal toxicity of the reference. The renal toxicity of a peptide can be measured in vitro using a renal proximal tubule epithelial cell (RPTEC) renal toxicity assay.
(§1) Cell culture: RPTEC were maintained in MEM media supplemented with growth factors. HEPG2 cell line was maintained in Eagle's Minimum Essential Medium (EMEM) supplemented with fetal bovine serum to a final concentration of 10%.
90 minute cytotoxicity assay: Cells were plated in a 96-well format, and after overnight incubation, media was replaced with fresh media. Serial dilutions of StAMPs from a 5 mg/mL water stock, or vehicle, were added to the cells in a final volume of 100 μl. After incubating at 37° C. for 90 min, 50 μl of cell culture media was transferred to a clear 96-well plate, incubated with 50 μl of lactate dehydrogenase (LDH) assay reagent for 10 min, and absorbance measured at 490 nm on a microplate reader.
(§2) Renal toxicity was measured after 90 minutes of incubation, while liver toxicity was measured after 48 hours of incubation with StAMPs. N/A=not tested.

Data set [2] in a line: 48 hours cytotoxicity assay (CellTiter-Glo), liver toxicity. Type of data set: cell-based, human.
Text: In some embodiments, a peptide provided herein has hepatic toxicity that is at least 10% (e.g., at least 15%, at least 20%, at least 25%, at least 30%, at least 35%, at least 40%, at least 45%, at least 50%, at least 55%, at least 60%, at least 65%, at least 65%, at least 70%, at least 75%, at least 80%, at least 85%, at least 90%, at least 95%, at least 99%) lower than the hepatic toxicity of the reference. The hepatic toxicity of a peptide can be measured in vitro using a human liver cells (e.g., HepG2) toxicity assay.
as §1
48 hours cytotoxicity assay: Cells were plated in a 96-well format, and after 4 hour incubation to allow attachment, serial dilutions of StAMPs from a 5 mg/mL water stock, or vehicle, were then added to the cells in a final volume of 100 μl. After incubating at 37° C. for 48 hours, 100 μl of CellTiter-Glo® reagent was added to the cells, and the plates were incubated 10 minutes at room temperature. Luminescence was then measured on a microplate reader.
as §2

Values after ≈ are worked out from the molar mass of the structure shown. Starred links: 1 amine or outer side, 2 acyl side, 3 side chain; linkers in the order of their positions; H or OH if unused. Positions of bridges follow the written chain, without caps; N, C: chain ends. Residues, ends and D or L forms follow the SMILES beside them. Biphenyl(4,4'-CH2)2 = c1cc(-c2ccc(C[*:2])cc2)ccc1C[*:1]; mXylylene = c1cc(C[*:1])cc(C[*:2])c1; pXylylene = c1cc(C[*:2])ccc1C[*:1] Some results are limits rather than exact numbers.

Take `CC[C@H](C)[C@H](NC(=O)CN)C(=O)N[C@@H](Cc1ccccc1)C(=O)N[C@@H](CO)C(=O)N[C@@H](CCCCN)C(=O)N[C@@H](CC(C)C)C(=O)N[C@@H](C)C(=O)NCC(=O)N[C@@H](CCCCN)C(=O)N[C@@H](CCCCN)C(=O)N[C@H](C(=O)N[C@@H](CCCCN)C(=O)N[C@@H](CC(N)=O)C(=O)N[C@@H](CC(C)C)C(=O)N[C@@H](CC(C)C)C(=O)N[C@H](C(=O)N[C@H]1CSCc2ccc(cc2)CSC[C@@H](C(N)=O)NC(=O)[C@H](CCCCN)NC(=O)[C@H](CC(C)C)NC(=O)CNC1=O)[C@@H](C)CC)[C@@H](C)CC` [compound 45] (H-GIFSKLAGKKIKNLLICGLKC-NH2; linker 17-21 via pXylylene; N-terminus assumed): the IC50 in data set [1] amounted to 105 µg/mL (≈ 44.7 µM); in data set [2] it was 83 µg/mL (≈ 35.3 µM).

For the molecule `CC[C@H](C)[C@H](NC(=O)CN)C(=O)N[C@@H](Cc1ccccc1)C(=O)N[C@@H](CO)C(=O)N[C@@H](CCCCN)C(=O)N[C@H]1CSCc2ccc(cc2)CSC[C@@H](C(=O)N[C@H](C(=O)N[C@@H](CCCCN)C(=O)N[C@@H](CC(N)=O)C(=O)N[C@@H](CC(C)C)C(=O)N[C@@H](CC(C)C)C(=O)N[C@H](C(=O)N[C@@H](CO)C(=O)NCC(=O)N[C@@H](CC(C)C)C(=O)N[C@@H](CCCCN)C(=O)NCC(N)=O)[C@@H](C)CC)[C@@H](C)CC)NC(=O)[C@H](CCCCN)NC(=O)CNC(=O)[C@H](C)NC1=O` [compound 8] (H-GIFSKCAGKCIKNLLISGLKG-NH2; linker 6-10 via pXylylene; N-terminus assumed), the IC50 was determined as 119 µg/mL (≈ 52.8 µM) in data set [1] and 15 µg/mL (≈ 6.66 µM) in data set [2].

With `CC[C@H](C)[C@H](NC(=O)CN)C(=O)N[C@H]1CSCc2ccc(cc2)-c2ccc(cc2)CSC[C@@H](C(=O)N[C@H](C(=O)N[C@@H](CCCCN)C(=O)N[C@@H](CC(N)=O)C(=O)N[C@@H](CC(C)C)C(=O)N[C@@H](CC(C)C)C(=O)N[C@H](C(=O)N[C@@H](CO)C(=O)NCC(=O)N[C@@H](CC(C)C)C(=O)N[C@@H](CCCCN)C(=O)NCC(N)=O)[C@@H](C)CC)[C@@H](C)CC)NC(=O)[C@H](CCCCN)NC(=O)CNC(=O)[C@H](C)NC(=O)[C@H](CC(C)C)NC(=O)[C@H](CCCCN)NC(=O)[C@H](CO)NC1=O` [compound 56] (H-GICSKLAGKCIKNLLISGLKG-NH2; linker 3-10 via Biphenyl(4,4'-CH2)2; N-terminus assumed), the IC50 came out at 17 µg/mL (≈ 7.41 µM) in data set [1] and 34 µg/mL (≈ 14.8 µM) in data set [2].

In the case of `CC[C@H](C)[C@H](NC(=O)CN)C(=O)N[C@@H](Cc1ccccc1)C(=O)N[C@@H](CO)C(=O)N[C@@H](CCCCN)C(=O)N[C@@H](CC(C)C)C(=O)N[C@H]1CSCc2cccc(c2)CSC[C@@H](C(=O)N[C@@H](CCCCN)C(=O)N[C@@H](CC(N)=O)C(=O)N[C@@H](CC(C)C)C(=O)N[C@@H](CC(C)C)C(=O)N[C@H](C(=O)N[C@@H](CO)C(=O)NCC(=O)N[C@@H](CC(C)C)C(=O)N[C@@H](CCCCN)C(=O)NCC(=O)N[C@@H](C)C(=O)N[C@@H](CCCCN)C(=O)O)[C@@H](C)CC)NC(=O)[C@H](CCCCN)NC(=O)[C@H](CCCCN)NC(=O)CNC1=O` [compound 96] (H-GIFSKLCGKKCKNLLISGLKGAK-OH; linker 7-11 via mXylylene; N-terminus assumed), the IC50 in data set [1] worked out at 153 µg/mL (≈ 61 µM); in data set [2], 193 µg/mL (≈ 76.9 µM).

Take `CC[C@H](C)[C@H](NC(=O)CN)C(=O)N[C@@H](Cc1ccccc1)C(=O)N[C@H]1CSCc2cccc(c2)CSC[C@@H](C(=O)N[C@@H](CCCCN)C(=O)N[C@@H](CCCCN)C(=O)N[C@H](C(=O)N[C@@H](CCCCN)C(=O)N[C@@H](CC(N)=O)C(=O)N[C@@H](CC(C)C)C(=O)N[C@@H](CC(C)C)C(=O)N[C@H](C(=O)N[C@@H](CO)C(=O)NCC(=O)N[C@@H](CC(C)C)C(=O)N[C@@H](CCCCN)C(=O)NCC(N)=O)[C@@H](C)CC)[C@@H](C)CC)NC(=O)[C@H](C)NC(=O)[C@H](CC(C)C)NC(=O)[C@H](CCCCN)NC1=O` [compound 5] (H-GIFCKLACKKIKNLLISGLKG-NH2; linker 4-8 via mXylylene; N-terminus assumed): the IC50 in data set [1] was found to be 14 µg/mL (≈ 5.96 µM); in data set [2] it was 23 µg/mL (≈ 9.79 µM).

In data set [1], `CC[C@H](C)[C@H](NC(=O)CN)C(=O)N[C@@H](Cc1ccccc1)C(=O)N[C@@H](CO)C(=O)N[C@@H](CCCCN)C(=O)N[C@@H](CC(C)C)C(=O)N[C@@H](C)C(=O)NCC(=O)N[C@@H](CCCCN)C(=O)N[C@H]1CSCc2ccc(cc2)-c2ccc(cc2)CSC[C@@H](C(=O)NCC(=O)N[C@@H](CC(C)C)C(=O)N[C@@H](CCCCN)C(=O)NCC(N)=O)NC(=O)[C@H]([C@@H](C)CC)NC(=O)[C@H](CC(C)C)NC(=O)[C@H](CC(C)C)NC(=O)[C@H](CC(N)=O)NC(=O)[C@H](CCCCN)NC(=O)[C@H]([C@@H](C)CC)NC1=O` [compound 74] (H-GIFSKLAGKCIKNLLICGLKG-NH2; linker 10-17 via Biphenyl(4,4'-CH2)2; N-terminus assumed) came in with an IC50 of 4 µg/mL (≈ 1.7 µM).

Turning to `CC[C@H](C)[C@H](NC(=O)CN)C(=O)N[C@@H](Cc1ccccc1)C(=O)N[C@@H](CO)C(=O)N[C@@H](CCCCN)C(=O)N[C@@H](CC(C)C)C(=O)N[C@H]1CSCc2ccc(cc2)CSC[C@@H](C(=O)N[C@@H](CCCCN)C(=O)N[C@@H](CC(N)=O)C(=O)N[C@@H](CC(C)C)C(=O)N[C@@H](CC(C)C)C(=O)N[C@H](C(=O)N[C@H]2CSCc3ccc(cc3)CSC[C@@H](C(N)=O)NC(=O)[C@H](CCCCN)NC(=O)[C@H](CC(C)C)NC(=O)CNC2=O)[C@@H](C)CC)NC(=O)[C@H](CCCCN)NC(=O)[C@H](CCCCN)NC(=O)CNC1=O` [compound 90] (H-GIFSKLCGKKCKNLLICGLKC-NH2; linker 7-11, 17-21 via pXylylene; N-terminus assumed), the IC50 in data set [1] (90 minutes of incubation, LDH release, read-out: Inhibitory Concentration at 50% Cytotoxicity (IC50) Human Renal Proximal Tubule Epithelial Cells (RPTEC)) was above 200 µg/mL.

`CC[C@H](C)[C@H](NC(=O)CN)C(=O)N[C@@H](Cc1ccccc1)C(=O)N[C@@H](CO)C(=O)N[C@@H](CCCCN)C(=O)N[C@@H](CC(C)C)C(=O)N[C@@H](C)C(=O)N[C@H]1CSCc2ccc(cc2)-c2ccc(cc2)CSC[C@@H](C(=O)N[C@H](C(=O)N[C@@H](CO)C(=O)NCC(=O)N[C@@H](CC(C)C)C(=O)N[C@@H](CCCCN)C(=O)NCC(N)=O)[C@@H](C)CC)NC(=O)[C@H](CC(C)C)NC(=O)[C@H](CC(N)=O)NC(=O)[C@H](CCCCN)NC(=O)[C@H]([C@@H](C)CC)NC(=O)[C@H](CCCCN)NC(=O)[C@H](CCCCN)NC1=O` [compound 68] (H-GIFSKLACKKIKNLCISGLKG-NH2; linker 8-15 via Biphenyl(4,4'-CH2)2; N-terminus assumed) registered an IC50 in data set [2] of 8 µg/mL (≈ 3.33 µM).

The molecule `CC[C@H](C)[C@H](NC(=O)CN)C(=O)N[C@@H](Cc1ccccc1)C(=O)N[C@@H](CO)C(=O)N[C@@H](CCCCN)C(=O)N[C@@H](CC(C)C)C(=O)N[C@H]1CSCc2cccc(c2)CSC[C@@H](C(=O)N[C@@H](CCCCN)C(=O)N[C@@H](CC(N)=O)C(=O)N[C@@H](CC(C)C)C(=O)N[C@@H](CC(C)C)C(=O)N[C@H](C(=O)N[C@@H](CO)C(=O)NCC(=O)N[C@@H](CC(C)C)C(=O)N[C@@H](CCCCN)C(=O)NCC(=O)O)[C@@H](C)CC)NC(=O)[C@H](CCCCN)NC(=O)[C@H](CCCCN)NC(=O)CNC1=O` [compound 91] (H-GIFSKLCGKKCKNLLISGLKG-OH; linker 7-11 via mXylylene; N-terminus assumed) registered an IC50 in data set [1] above 200 µg/mL.

For `CC[C@H](C)[C@H](NC(=O)CN)C(=O)N[C@@H](Cc1ccccc1)C(=O)N[C@H]1CSCc2ccc(cc2)-c2ccc(cc2)CSC[C@@H](C(=O)N[C@@H](CCCCN)C(=O)N[C@@H](CC(N)=O)C(=O)N[C@@H](CC(C)C)C(=O)N[C@@H](CC(C)C)C(=O)N[C@H](C(=O)N[C@@H](CO)C(=O)NCC(=O)N[C@@H](CC(C)C)C(=O)N[C@@H](CCCCN)C(=O)NCC(N)=O)[C@@H](C)CC)NC(=O)[C@H](CCCCN)NC(=O)[C@H](CCCCN)NC(=O)CNC(=O)[C@H](C)NC(=O)[C@H](CC(C)C)NC(=O)[C@H](CCCCN)NC1=O` [compound 59] (H-GIFCKLAGKKCKNLLISGLKG-NH2; linker 4-11 via Biphenyl(4,4'-CH2)2; N-terminus assumed), the IC50 in data set [2] turned out to be 23 µg/mL (≈ 9.71 µM).

Values taken from patent US20240391965A1, “STAPLED ANTIMICROBIAL PEPTIDES (STAMPS) AND USES THEREOF” (Lytica Therapeutics, Inc., priority 2021, published 2024).
